Structures are written as SMILES.

In one test the target is T1, hNaV1.7 (Homo sapiens, UniProt Q15858).
T1 construct: expressed in transfected cells
T1 sequence (Q15858 whole entry): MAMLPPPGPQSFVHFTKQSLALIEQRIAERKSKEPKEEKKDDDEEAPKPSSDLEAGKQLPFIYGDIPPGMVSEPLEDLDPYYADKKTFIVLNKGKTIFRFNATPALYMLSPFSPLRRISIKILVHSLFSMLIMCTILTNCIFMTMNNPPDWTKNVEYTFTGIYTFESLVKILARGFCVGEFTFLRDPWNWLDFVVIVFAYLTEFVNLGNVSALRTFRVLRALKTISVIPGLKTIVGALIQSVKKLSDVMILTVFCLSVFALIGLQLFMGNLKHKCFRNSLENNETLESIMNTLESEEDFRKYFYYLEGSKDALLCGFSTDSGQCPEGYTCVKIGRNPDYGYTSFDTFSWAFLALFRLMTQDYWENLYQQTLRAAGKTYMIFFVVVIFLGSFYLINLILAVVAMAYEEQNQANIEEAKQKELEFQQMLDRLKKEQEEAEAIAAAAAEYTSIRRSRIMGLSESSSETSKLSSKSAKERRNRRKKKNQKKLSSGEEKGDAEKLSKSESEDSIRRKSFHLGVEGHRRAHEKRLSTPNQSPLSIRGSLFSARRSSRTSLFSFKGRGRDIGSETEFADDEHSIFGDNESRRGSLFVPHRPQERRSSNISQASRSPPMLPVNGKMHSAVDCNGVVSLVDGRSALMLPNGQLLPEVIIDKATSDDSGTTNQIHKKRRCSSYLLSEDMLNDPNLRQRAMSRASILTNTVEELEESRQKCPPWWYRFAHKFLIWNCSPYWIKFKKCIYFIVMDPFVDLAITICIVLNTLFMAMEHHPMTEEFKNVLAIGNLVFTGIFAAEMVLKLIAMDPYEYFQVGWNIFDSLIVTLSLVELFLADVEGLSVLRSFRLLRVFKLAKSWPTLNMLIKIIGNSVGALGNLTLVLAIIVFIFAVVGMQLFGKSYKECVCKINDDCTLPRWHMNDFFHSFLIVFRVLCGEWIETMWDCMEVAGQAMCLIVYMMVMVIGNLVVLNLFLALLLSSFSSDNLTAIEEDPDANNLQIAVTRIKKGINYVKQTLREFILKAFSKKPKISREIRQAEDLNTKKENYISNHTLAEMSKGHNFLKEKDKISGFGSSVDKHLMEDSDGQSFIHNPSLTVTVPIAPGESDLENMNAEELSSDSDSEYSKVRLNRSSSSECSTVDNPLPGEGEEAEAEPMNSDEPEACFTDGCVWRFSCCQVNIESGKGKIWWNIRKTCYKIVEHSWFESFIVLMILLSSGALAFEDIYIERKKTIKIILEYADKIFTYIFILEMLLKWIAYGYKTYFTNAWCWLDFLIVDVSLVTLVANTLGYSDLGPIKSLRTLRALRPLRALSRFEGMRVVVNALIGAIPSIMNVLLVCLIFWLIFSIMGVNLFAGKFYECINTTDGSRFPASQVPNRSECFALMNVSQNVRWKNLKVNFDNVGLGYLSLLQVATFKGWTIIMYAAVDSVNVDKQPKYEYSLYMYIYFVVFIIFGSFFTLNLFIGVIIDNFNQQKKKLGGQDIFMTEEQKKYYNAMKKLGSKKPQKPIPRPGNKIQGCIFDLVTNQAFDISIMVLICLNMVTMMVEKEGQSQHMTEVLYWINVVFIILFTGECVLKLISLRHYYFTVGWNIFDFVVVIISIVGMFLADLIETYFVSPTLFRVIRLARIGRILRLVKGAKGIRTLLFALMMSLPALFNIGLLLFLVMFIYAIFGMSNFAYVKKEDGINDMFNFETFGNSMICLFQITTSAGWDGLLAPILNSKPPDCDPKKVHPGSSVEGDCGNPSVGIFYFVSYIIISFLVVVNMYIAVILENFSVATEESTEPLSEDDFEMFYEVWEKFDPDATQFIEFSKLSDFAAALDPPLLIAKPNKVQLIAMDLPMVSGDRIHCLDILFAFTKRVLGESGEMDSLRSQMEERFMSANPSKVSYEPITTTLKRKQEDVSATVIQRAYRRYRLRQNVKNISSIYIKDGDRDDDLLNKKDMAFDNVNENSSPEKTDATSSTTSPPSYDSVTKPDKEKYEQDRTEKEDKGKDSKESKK
T1 sequence (Q07699 19-218 partner): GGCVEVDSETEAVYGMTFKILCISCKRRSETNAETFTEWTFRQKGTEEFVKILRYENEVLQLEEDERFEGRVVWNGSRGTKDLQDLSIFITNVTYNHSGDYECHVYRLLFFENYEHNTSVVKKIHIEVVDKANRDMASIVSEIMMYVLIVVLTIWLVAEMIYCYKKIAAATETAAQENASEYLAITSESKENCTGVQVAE
T1 sequence (O60939 30-215 partner): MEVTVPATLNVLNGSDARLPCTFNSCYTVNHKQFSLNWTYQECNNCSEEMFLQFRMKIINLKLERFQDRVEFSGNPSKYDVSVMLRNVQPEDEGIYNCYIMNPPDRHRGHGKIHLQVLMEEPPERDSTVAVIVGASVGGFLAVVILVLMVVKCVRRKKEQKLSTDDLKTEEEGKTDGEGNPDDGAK
The test is described as follows: FDSS Membrane Potential In-Vitro Assay. The class given is cell-based. As to conditions: stimulation with veratridine and scorpion venom, read-out: NaV1.7 IC50.
`O=S(=O)(Nc1cscn1)c1cc(Cl)c(Oc2ccc(Cl)cc2CCCNc2cc[nH]n2)cc1F` [Compound 45, 4-(2-(3-((1H-pyrazol-3-yl)amino)propyl)-4-chlorophenoxy)-5-chloro-2-fluoro-N-(thiazol-4-yl)benzenesulfonamide]: the IC50 fell in the range of 1000 to 20000 nM.

For `O=S(=O)(Nc1nccs1)c1cc(Cl)c(Oc2ccc(Cl)cc2CCCNc2cn[nH]c2)cc1F` [Compound 42, 4-(2-(3-((1H-pyrazol-4-yl)amino)propyl)-4-chlorophenoxy)-5-chloro-2-fluoro-N-(thiazol-2-yl)benzenesulfonamide], the IC50 was in the range of 1000 to 20000 nM. Regarding `CCOC(=O)CNCCCc1cc(Cl)ccc1Oc1cc(F)c(S(=O)(=O)Nc2nccs2)cc1Cl` [Compound 35, ethyl 2-((3-(5-chloro-2-(2-chloro-5-fluoro-4-(N-(thiazol-2-yl)sulfamoyl)phenoxy)phenyl)propyl)amino)acetate], the IC50 was 100 to 500 nM. The same measure, in the same setting: with `CNC(=O)CNCCCc1cc(Cl)ccc1Oc1cc(F)c(S(=O)(=O)Nc2cscn2)cc1Cl` [Compound 46, 2-((3-(5-chloro-2-(2-chloro-5-fluoro-4-(N-(thiazol-4-yl)sulfamoyl)phenoxy)phenyl)propyl)amino)-N-methylacetamide] the figure was 100 to 500 nM; with `O=C(O)CNC(=O)c1cccc(-c2cc(Cl)ccc2Oc2cc(F)c(S(=O)(=O)Nc3ncns3)cc2Cl)n1` [Compound 7, 2-(6-(2-(4-(N-(1,2,4-thiadiazol-5-yl)sulfamoyl)-2-chloro-5-fluorophenoxy)-5-chlorophenyl)picolinamido)acetic acid], 130 to 1000 nM. Take `O=S(=O)(Nc1nccs1)c1cc(Cl)c(Oc2ccc(Cl)cc2-c2cnn3c2NCCC3)cc1F` [Compound 57, 5-chloro-4-(4-chloro-2-(4,5,6,7-tetrahydropyrazolo[1,5-a]pyrimidin-3-yl)phenoxy)-2-fluoro-N-(thiazol-2-yl)benzenesulfonamide]: the IC50 fell in the range of 100 to 500 nM. The same measure, in the same setting: with `CS(=O)(=O)CCNCCCc1cc(Cl)ccc1Oc1cc(F)c(S(=O)(=O)Nc2nccs2)cc1Cl` [Compound 59, 5-chloro-4-(4-chloro-2-(3-((2-(methylsulfonyl)ethyl)amino)propyl)phenoxy)-2-fluoro-N-(thiazol-2-yl)benzenesulfonamide] the figure was 100 to 500 nM; with `CC(C)OC(=O)CNCCCc1cc(Cl)ccc1Oc1cc(F)c(S(=O)(=O)Nc2nccs2)cc1Cl` [Compound 51, isopropyl 2-((3-(5-chloro-2-(2-chloro-5-fluoro-4-(N-(thiazol-2-yl)sulfamoyl)phenoxy)phenyl)propyl)amino)acetate], 500 to 1000 nM. Still for that read-out and setting: to `O=S(=O)(Nc1cscn1)c1cc(Cl)c(Oc2ccc(Cl)cc2CCCN2CCn3ccnc3C2)cc1F` [Compound 55, 5-chloro-4-(4-chloro-2-(3-(5,6-dihydroimidazo[1,2-a]pyrazin-7(8H)-yl)propyl)phenoxy)-2-fluoro-N-(thiazol-4-yl)benzenesulfonamide] belongs 100 to 500 nM. As to `O=C(O)CCNCCCc1cc(Cl)ccc1Oc1cc(F)c(S(=O)(=O)Nc2nccs2)cc1F` [Compound 43, 3-((3-(5-chloro-2-(2,5-difluoro-4-(N-(thiazol-2-yl)sulfamoyl)phenoxy)phenyl)propyl)amino)propanoic acid], the IC50 was in the range of 100 to 500 nM. The same measure, in the same setting: with `CC(C)CCOC(=O)CNCCCc1cc(Cl)ccc1Oc1cc(F)c(S(=O)(=O)Nc2nccs2)cc1Cl` [Compound 50, isopentyl 2-((3-(5-chloro-2-(2-chloro-5-fluoro-4-(N-(thiazol-2-yl)sulfamoyl)phenoxy)phenyl)propyl)amino)acetate] the figure was 500 to 1000 nM; with `O=S(=O)(Nc1cscn1)c1cc(Cl)c(Oc2ccc(Cl)cc2CCCN2CCc3[nH]ncc3C2)cc1F` [Compound 48, 5-chloro-4-(4-chloro-2-(3-(6,7-dihydro-1H-pyrazolo[4,3-c]pyridin-5(4H)-yl)propyl)phenoxy)-2-fluoro-N-(thiazol-4-yl)benzenesulfonamide], 500 to 1000 nM; with `CCOC(=O)CN(C)CCCc1cc(Cl)ccc1Oc1cc(F)c(S(=O)(=O)Nc2nccs2)cc1Cl` [Compound 68, ethyl 2-((3-(5-chloro-2-(2-chloro-5-fluoro-4-(N-(thiazol-2-yl)sulfamoyl)phenoxy)phenyl)propyl)(methyl)amino)acetate], 500 to 1000 nM.

A further test deals with T2, NaV1.7 (Homo sapiens, UniProt Q15858).
T2 construct: expressed in transfected cells
T2 sequence (Q15858 whole entry): as the sequence (Q15858 whole entry) above
T2 sequence (Q07699 19-218 partner): as the sequence (Q07699 19-218 partner) above
T2 sequence (O60939 30-215 partner): as the sequence (O60939 30-215 partner) above
Briefly: Patchliner Electrophysiological In-Vitro Assay (NaV1.7). The class given is cell-based. As to conditions: Patchliner patch clamp, HEK293, holding at V1/2. How it is done: In vitro assays were performed in recombinant cell line that stably express a heterotrimeric protein of interest from an introduced nucleic acid encoding the alpha subunit (hNav1.7, SCN9A), the beta subunit (SCNB1) and the beta subunit (SCNB2). The cell line was engineered using Human Embryonic Kidney 293 cells as host background. Additional cell lines stably expressing recombinant Nav1.7 or Nav1.5 alpha subunit alone or in combination with various beta subunits can also be used in in-vitro assays.
The recording of sodium current from stable HEK293 cell lines expressing NaV1.7 or NaV1.5 was done on a Patchliner® instrument, Nanion Technologies. The Patchliner® is a fully automated bench-top patch clamp platform and can record simultaneously from up to eight single cells with GΩ seals.
For patch-clamp experiments, cells were grown under standard culturing conditions in Dulbecco's Modified Eagles medium supplemented with 10% fetal bovine serum, glutamine and HEPES. Cells were harvested and kept in suspension for up to 4 hours with no significant change in quality or ability to patch. Whole cell patch clamp recordings were conducted according to Nanion's standard procedure for the Patchliner®. Experiments were conducted at room temperature.
Voltage protocols were designed to establish: 1) peak current amplitude (Imax), 2) test potential (Vmax) and 3) half-inactivation potential (V1/2) for each of the eight individual cells. To determine V1/2, a standard steady-state inactivation protocol was executed using a series of fifteen 500 ms depolarizing pre-pulses in 10 mV increments (starting at −130 mV) and immediately followed by a 10 ms test pulse to Vmax. To estimate test compound affinity to the inactivated state of sodium channel (Ki), the holding potential for each cell was set automatically to the V1/2 calculated from a steady-state inactivation data. The current was activated with the following voltage protocol: holding at V1/2 for 2-5 seconds, return to the −120 mV for 5-10 ms to relieve fast inactivation, stepping to test potential (Vmax) for 10-20 ms. This voltage protocol was repeated every 10 seconds to establish the baseline with 2-3 buffer additions followed by the test compound addition. The dose-dependent inhibition was analyzed using Nanion's Data Analysis Package.
For orientation: Patch clamp records ionic current or voltage across a cell membrane.
With `CCCN(CCCc1cc(Cl)ccc1Oc1cc(F)c(S(=O)(=O)Nc2nccs2)cc1Cl)CC(=O)O` [Compound 65, 2-((3-(5-chloro-2-(2-chloro-5-fluoro-4-(N-(thiazol-2-yl)sulfamoyl)phenoxy)phenyl)propyl)(propyl)amino)acetic acid], the IC50 was below 100 nM. Consider `CC#CCN(CCCc1cc(Cl)ccc1Oc1cc(F)c(S(=O)(=O)Nc2nccs2)cc1Cl)CC(=O)O` [Compound 64, 2-(but-2-yn-1-yl(3-(5-chloro-2-(2-chloro-5-fluoro-4-(N-(thiazol-2-yl)sulfamoyl)phenoxy)phenyl)propyl)amino)acetic acid], for which the IC50 is below 100 nM. On the same count and under the same terms, with `O=S(=O)(Nc1cscn1)c1cc(Cl)c(Oc2ccc(Cl)cc2-c2cnn3c2NCCC3)cc1F` [Compound 33, 5-chloro-4-(4-chloro-2-(4,5,6,7-tetrahydropyrazolo[1,5-a]pyrimidin-3-yl)phenoxy)-2-fluoro-N-(thiazol-4-yl)benzenesulfonamide] the figure was 100 to 1000 nM; with `CCCCCOC(=O)N(CCCc1cc(Cl)ccc1Oc1cc(F)c(S(=O)(=O)Nc2nccs2)cc1Cl)CC(=O)O` [Compound 53, 2-((3-(5-chloro-2-(2-chloro-5-fluoro-4-(N-(thiazol-2-yl)sulfamoyl)phenoxy)phenyl)propyl)((pentyloxy)carbonyl)amino)acetic acid], below 100 nM. Same read-out and setting: with `C#CCN(CCCc1cc(Cl)ccc1Oc1cc(F)c(S(=O)(=O)Nc2cscn2)cc1Cl)CC(=O)O` [Compound 61, 2-((3-(5-chloro-2-(2-chloro-5-fluoro-4-(N-(thiazol-4-yl)sulfamoyl)phenoxy)phenyl)propyl)(prop-2-yn-1-yl)amino)acetic acid] the figure was below 100 nM; with `COC(=O)CNCCCc1cc(Cl)ccc1Oc1cc(F)c(S(=O)(=O)Nc2cscn2)cc1Cl` [Compound 24, methyl 2-((3-(5-chloro-2-(2-chloro-5-fluoro-4-(N-(thiazol-4-yl)sulfamoyl)phenoxy)phenyl)propyl)amino)acetate], below 100 nM. Regarding `NC(=O)CNCCCc1cc(Cl)ccc1Oc1cc(F)c(S(=O)(=O)Nc2cscn2)cc1F` [Compound 69, 2-((3-(5-chloro-2-(2,5-difluoro-4-(N-(thiazol-4-yl)sulfamoyl)phenoxy)phenyl)propyl)amino)acetamide], the IC50 is below 100 nM. The same measure, in the same setting: with `C#CCN(CCCc1cc(Cl)ccc1Oc1cc(F)c(S(=O)(=O)Nc2nccs2)cc1F)CC(=O)O` [Compound 67, 2-((3-(5-chloro-2-(2,5-difluoro-4-(N-(thiazol-2-yl)sulfamoyl)phenoxy)phenyl)propyl)(prop-2-yn-1-yl)amino)acetic acid] the figure was below 100 nM. The same measure, in the same setting: with `NC(=O)CNCCCc1ccccc1Oc1cc(F)c(S(=O)(=O)Nc2cscn2)cc1Cl` [Compound 60, 2-((3-(2-(2-chloro-5-fluoro-4-(N-(thiazol-4-yl)sulfamoyl)phenoxy)phenyl)propyl)amino)acetamide] the figure was below 100 nM.

On to `O=C(O)CCNCCCc1cc(F)ccc1Oc1cc(F)c(S(=O)(=O)Nc2cscn2)cc1Cl` [Compound 25, 3-((3-(2-(2-chloro-5-fluoro-4-(N-(thiazol-4-yl)sulfamoyl)phenoxy)-5-fluorophenyl)propyl)amino)propanoic acid], for which the IC50 fell in the range of 100 to 1000 nM. Same read-out and setting: to `C#CCN(CCCc1cc(Cl)ccc1Oc1cc(F)c(S(=O)(=O)Nc2nccs2)cc1Cl)CCC(=O)O` [Compound 66, 3-((3-(5-chloro-2-(2-chloro-5-fluoro-4-(N-(thiazol-2-yl)sulfamoyl)phenoxy)phenyl)propyl)(prop-2-yn-1-yl)amino)propanoic acid] belongs below 100 nM; to `C=CCN(CCCc1cc(Cl)ccc1Oc1cc(F)c(S(=O)(=O)Nc2nccs2)cc1Cl)CC(=O)O` [Compound 62, 2-(allyl(3-(5-chloro-2-(2-chloro-5-fluoro-4-(N-(thiazol-2-yl)sulfamoyl)phenoxy)phenyl)propyl)amino)acetic acid], below 100 nM; to `NC(=O)CNCCCc1cc(Cl)ccc1Oc1cc(F)c(S(=O)(=O)Nc2nccs2)cc1Cl` [Compound 63, 2-((3-(5-chloro-2-(2-chloro-5-fluoro-4-(N-(thiazol-2-yl)sulfamoyl)phenoxy)phenyl)propyl)amino)acetamide], below 100 nM.

For the molecule `O=C(O)CCNCCCc1cc(Cl)ccc1Oc1cc(F)c(S(=O)(=O)Nc2nccs2)cc1Cl` [Compound 29, 3-((3-(5-chloro-2-(2-chloro-5-fluoro-4-(N-(thiazol-2-yl)sulfamoyl)phenoxy)phenyl)propyl)amino)propanoic acid], the IC50 is below 100 nM.

The IC50 is the concentration needed to halve the response being measured.

Source of the values: US20160221974A1, “SODIUM CHANNEL MODULATORS FOR THE TREATMENT OF PAIN AND DIABETES” (CHROMOCELL CORPORATION, priority 2013, published 2016).
